Source: PMC7996900 (Microorganisms, 2021)

Target: SUMOHis6-GdpX6^GGDEF (GdpX6, PXO_02019) (Xanthomonas oryzae, UniProt A0A0K0GND9)
Assay: biochemical

SUMOHis6-GdpX6^GGDEF (GdpX6, PXO_02019), sequence (A0A0K0GND9 318-494 limits assumed): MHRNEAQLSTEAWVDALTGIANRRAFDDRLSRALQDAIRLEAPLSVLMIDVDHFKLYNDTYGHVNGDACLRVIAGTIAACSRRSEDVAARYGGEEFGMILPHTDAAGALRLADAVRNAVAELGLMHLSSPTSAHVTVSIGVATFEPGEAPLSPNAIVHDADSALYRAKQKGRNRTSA

With `Nc1nc2c(ncn2[C@@H]2O[C@@H]3CO[P@](=O)(O)O[C@H]4[C@@H](O)[C@H](n5cnc6c(=O)[nH]c(N)nc65)O[C@@H]4CO[P@](=O)(O)O[C@H]3[C@H]2O)c(=O)[nH]1` [c-di-GMP] the Kd was 9 ± 2.98 µM.
